{"source": "patent US4510144A", "about": "“Methods of imparting immunomodulating activity with dihydrothiazolo purine derivatives” (Newport Pharmaceuticals International, priority 1982, dated 1985)", "key": {"[1]": {"test_system": "Influenza A/USSR 90", "test": "inhibition of influenza virus replication (hemadsorption assay)", "type": "cell-based", "conditions": "read-out: % inhibition of viral growth", "procedure": "The ability of NPT 16416 to inhibit influenza virus replication was measured using the hemadsorption assay."}, "[2]": {"test_system": "splenocytes from athymic mice (theta positive cells)", "test": "induction of theta positive cells in splenocytes from athymic (nude) mice in vitro", "type": "cell-based", "conditions": "for percent of theta positive cells: mean of three experiments, saline control 8", "description": "(4) Induction of theta positive cells in nude mice (in vitro)."}, "[3]": {"test": "preliminary toxicity studies in Balb/C mice", "type": "in vivo", "procedure": "If it is assumed 50 mg/kg is the minimum lethal dose and it is assumed <0.05 mg/kg is the minimum effective dose, the lowest possible therapeutic ratio for NPT 16416 is 50/0.05 or 1000/1.0. It is believed that the toxicity is far less by the oral route since 500 mg/kg p.o. produced no deaths in Balb/c mice."}, "[4]": {"test_system": "macrophages", "test": "lymphokine (macrophage mitogenic factor, MMF) induced macrophage proliferation in vitro", "type": "cell-based", "description": "(2) Lymphokine (macrophage mitogenic factor, MMF) induced macrophage proliferation (in vitro\n2. NPT 16416 is also capable of augmenting the lymphokine (MMF) induced proliferation of macrophages causing a 70% enhancement of macrophage proliferation."}, "[5]": {"test_system": "lymphocytes from normal volunteers (active E-rosettes)", "test": "enhancement of active E-rosettes, lymphocytes from normal volunteers in vitro", "type": "cell-based", "conditions": "for % E-rosettes (active): control 37", "procedure": "The effects of NPT 16416 on stimulating formation of active rosettes when incubated with lymphocytes in vitro from normal volunteers is described in Table XII. It is important to note that 5×10^-8M concentration of NPT 16416 is capable of producing a 36.5% enhancement of Active E-Rosettes. The enhancement of Active E-Rosettes is biologically important because that fraction of lymphocytes (T-cells) which are the active rosettes are found to be deficient in tumor patients and virus infected individuals. Restoration of this deficiency should benefit the patient."}, "[6]": {"test_system": "Herpes Simplex Virus Type I", "test": "inhibition of Herpes Simplex Virus replication", "type": "cell-based", "conditions": "read-out: % inhibition of viral growth"}}, "data": [{"compound": "Oc1ncnc2c1nc1n2CCS1", "note": "[NPT 16416, 3-hydroxy-7,8-dihydrothiazolo-[3,2e]-purine]", "values": [{"measurement": "inhibition at 0.1 µg/mL", "setting": "[1]; 0.1 μg/ml", "value": 54, "unit": "%"}, {"measurement": "inhibition at 0.5 µg/mL", "setting": "[1]; 0.5 μg/ml", "value": 59, "unit": "%"}, {"measurement": "inhibition at 75 µg/mL", "setting": "[1]; 75 μg/ml", "value": 78, "unit": "%"}, {"measurement": "inhibition at 0.05 µg/mL", "setting": "[1]; NPT 16416 0.05 μg/ml", "value": 48, "unit": "%"}, {"measurement": "percent of theta positive cells", "setting": "[2]; .005-.01 μg/ml", "value": 14, "unit": "%"}, {"measurement": "percent of theta positive cells", "setting": "[2]; .05-.1 μg/ml", "value": 18, "unit": "%"}, {"measurement": "percent of theta positive cells", "setting": "[2]; .5-1.0 μg/ml", "value": 17, "unit": "%"}, {"measurement": "production of theta positive (T) cells, in words", "setting": "[2]; in vitro", "value": "able to cause the production of T-cells from a T-cell deficient population"}, {"measurement": "increase of theta positive cells over control values", "setting": "[2]; spleen cells from athymic mice, in vitro", "value": 125, "unit": "%"}, {"measurement": "mortality", "setting": "[3]; 50 mg/kg i.p., Balb/C mice", "value": "no mortality"}, {"measurement": "deaths", "setting": "[3]; 500 mg/kg p.o., Balb/c mice", "value": "no deaths"}, {"measurement": "enhancement of lymphokine (MMF) induced macrophage proliferation", "setting": "[4]", "value": 70, "unit": "%"}, {"measurement": "% E-rosettes (active)", "setting": "[5]; 5 × 10^-5 M", "value": 43, "unit": "%"}, {"measurement": "% E-rosettes (active)", "setting": "[5]; 5 × 10^-7 M", "value": 55.5, "unit": "%"}, {"measurement": "% E-rosettes (active)", "setting": "[5]; 5 × 10^-8 M", "value": 62.5, "unit": "%"}, {"measurement": "% E-rosettes (active)", "setting": "[5]; 5 × 10^-9 M", "value": 58.5, "unit": "%"}, {"measurement": "% E-rosettes (active)", "setting": "[5]; 5 × 10^-10 M", "value": 42, "unit": "%"}, {"measurement": "activation at 50 µM", "setting": "[5]; Homo sapiens, Lymphocyte, 5 × 10^-5 M, read-out: % increase of active E-rosettes", "value": 10, "unit": "%"}, {"measurement": "activation at 0.5 µM", "setting": "[5]; Homo sapiens, Lymphocyte, 5 × 10^-7 M, read-out: % increase of active E-rosettes", "value": 23, "unit": "%"}, {"measurement": "activation at 0.05 µM", "setting": "[5]; Homo sapiens, Lymphocyte, 5 × 10^-8 M, read-out: % increase of active E-rosettes", "value": 36.5, "unit": "%"}, {"measurement": "activation at 0.005 µM", "setting": "[5]; Homo sapiens, Lymphocyte, 5 × 10^-9 M, read-out: % increase of active E-rosettes", "value": 34, "unit": "%"}, {"measurement": "activation at 0.0005 µM", "setting": "[5]; Homo sapiens, Lymphocyte, 5 × 10^-10 M, read-out: % increase of active E-rosettes", "value": 7.6, "unit": "%"}, {"measurement": "inhibition at 37.5 µg/mL", "setting": "[6]; 37.5 μg/ml", "value": 33, "unit": "%"}, {"measurement": "inhibition at 75 µg/mL", "setting": "[6]; 75 μg/ml", "value": 61, "unit": "%"}, {"measurement": "inhibition at 150 µg/mL", "setting": "[6]; 150 μg/ml", "value": 65, "unit": "%"}]}]}
